One may read the Ki as a measure of affinity in units of concentration, obtained from inhibition or displacement.

The test system of test [1] is hA1AR. Description: Ki values of known ligands downloaded from the ChEMBL database. The format is binding, human. Particulars: from ChEMBL Ki values hA1AR and hA2AAR. The source says: Table S5. Highest affinity human A1AR ligands (with < 20 HA) in the ChEMBL database compared to compound 22.a […]
a Known A1AR and A2AAR ligands with determined Ki values were downloaded from the ChEMBL database.
Compounds with motifs found in pan-assay interference compounds16 were excluded using OpenEye Toolkits 2020.2.0 OpenEye Scientific Software, Santa Fe, NM. http://www.eyesopen.com.

Test [2] addresses hA1AR. Details: method as in ChEMBL database. The settings on record: ligands with < 20 HA; ref ChEMBL database; cited from earlier work.
In another test the target is hA2AAR. Details: method as in ChEMBL database. Particulars: ligands with < 20 HA; ref ChEMBL database; cited from earlier work.
For test [3], the target named is T1, human A1AR (Homo sapiens, UniProt P30542).
T1 construct: expressed in transfected cells; host or cells: HEK293 (membrane preparations)
T1 sequence (P30542 1-326): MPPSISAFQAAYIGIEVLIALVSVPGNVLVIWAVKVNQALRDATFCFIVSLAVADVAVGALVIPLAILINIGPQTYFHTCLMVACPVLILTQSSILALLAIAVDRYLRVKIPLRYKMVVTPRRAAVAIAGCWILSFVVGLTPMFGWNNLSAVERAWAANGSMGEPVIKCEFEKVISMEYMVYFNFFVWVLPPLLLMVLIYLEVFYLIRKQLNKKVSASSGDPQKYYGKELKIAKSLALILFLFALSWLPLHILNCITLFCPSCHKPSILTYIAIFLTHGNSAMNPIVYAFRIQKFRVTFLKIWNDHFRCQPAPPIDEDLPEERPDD
The test can be described thus: Radioligand binding assay, displacement of [3H]DPCPX. Particulars: for Free energy of binding (ΔG) A1AR: calculated from experimental binding affinities; for ΔΔG Experimental A1AR: based on Table S3. The procedure: (§1) Radioligand binding assays. HEK293 cells expressing the human A1- or A2AARs were cultured in DMEM supplemented with 10% fetal bovine serum, 100 Units/ml penicillin, 100 µg/ml streptomycin, and 2 µmol/ml glutamine. Cells were detached from plates by scraping into cold PBS and centrifuged at 250 g for 5 min. The pellets were resuspended in ice-cold Tris HCl buffer (50 mM, pH 7.4) and then homogenized. After homogenization and suspension, cells were centrifuged at 1000 g for 10 min, and the pellet was discarded.
(§2) The suspension was then re-centrifuged at 20,000 g for 60 min at 4 °C. The pellets were resuspended in buffer containing 3 Units/ml adenosine deaminase and incubated at 37°C for 30 min. The aliquots of membrane preparations were stored at −80°C until the binding experiments. For displacement binding assays, membrane preparations (20 µg proteins/tube) were incubated at 25°C for 60 min with a final concentration of [3H]DPCPX (0.5 nM) and [3H]ZM241385 (1.0 nM) for A1- and A2AARs, respectively, in a mixture containing 50 µL of increasing concentrations of a test ligand in a total assay volume of 200 µL of 50 mM Tris HCl, pH 7.4, containing 10 mM MgCl2. Nonspecific binding was determined using 100 µM of XAC. The reaction was terminated by filtration with GF/B filters using a Brandel 24-channel harvester. Filters were placed in scintillation vials containing 5 ml of Hydrofluor scintillation buffer and counted using a PerkinElmer Tricarb 2810TR liquid scintillation counter. […]
(§3) Table S1. Binding affinities of compounds 1-10 based on displacement of [3H]DPCPX and [3H]ZM241385 at the A1AR and A2AAR, respectively.
(§4) Compound Substituent A1AR A2AAR index […]
(§5) a Ki values are expressed as means ± SEM from (2-4) independent experiments. b Free energy of binding (ΔG) calculated from experimental binding affinities (kcal/mol) / Number of heavy atoms (HA). The ligand efficiency (LE) = −ΔG/HA. c Values from Matricon et al.8
(§6) Table S3. Binding affinities of compounds 11-26 based on displacement of [3H]DPCPX and […]
(§7) a K values are expressed as means ± SEM from (2-4) independent experiments.
(§8) Free energy of binding (ΔG) calculated from experimental binding affinities (kcal/mol) / Number of heavy

For test [4], the system named is human A1AR. The description is as above. The settings on record: A1AR versus A2AAR; for A1AR selectivity index: from Ki values. The procedure:
as §1, §2, §3, §4, §5, §6, §7, §8

Another test concerns the target T2, human A2AAR (Homo sapiens, UniProt P29274).
T2 construct: expressed in transfected cells; host or cells: HEK293 (membrane preparations)
The test can be described thus: Radioligand binding assay, displacement of [3H]ZM241385. Particulars: for Free energy of binding (ΔG) A2AAR: calculated from experimental binding affinities; for Ki: displacement of [3H]ZM241385, means ± SEM from 2-4 independent experiments; for ΔΔG Experimental A2AAR: based on Table S3. As for the experimental part: as §1, §2, §3, §4, §5, §6, §7, §8

[5] abbreviates: displacement of [3H]DPCPX, means ± SEM from 2-4 independent experiments.

T2 sequence (P29274 whole entry): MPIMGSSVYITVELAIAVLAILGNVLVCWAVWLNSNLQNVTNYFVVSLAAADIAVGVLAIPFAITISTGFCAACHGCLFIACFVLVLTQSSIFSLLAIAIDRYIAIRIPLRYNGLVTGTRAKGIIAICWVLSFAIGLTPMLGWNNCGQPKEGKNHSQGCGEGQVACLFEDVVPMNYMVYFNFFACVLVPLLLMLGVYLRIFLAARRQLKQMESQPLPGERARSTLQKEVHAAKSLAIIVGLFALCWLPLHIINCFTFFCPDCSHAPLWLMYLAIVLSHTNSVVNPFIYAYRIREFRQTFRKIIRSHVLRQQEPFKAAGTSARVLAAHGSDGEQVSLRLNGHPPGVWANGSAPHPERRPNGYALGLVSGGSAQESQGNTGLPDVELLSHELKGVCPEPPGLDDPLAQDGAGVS

For the compound `Cc1nc(N)c2nc(-n3nccn3)n(C)c2n1` [CHEMBL194290], the A1AR selectivity with hA1AR [1] is given as 6.8. In addition, the Ki was 10.4 nM at hA1AR [2] and 70.4 nM at hA2AAR.

Take `Cn1c(-n2nccn2)nc2c(N)ncnc21` [CHEMBL194728]: the A1AR selectivity in the test on hA1AR [1] amounted to 115.7. The values for the Ki on hA1AR [2] and on hA2AAR were 0.4 nM and 46.3 nM, respectively.

`Nc1nc2ccccc2n2nc(-c3ccco3)nc12` [CHEMBL261345]: the A1AR selectivity in the test on hA1AR [1] was determined as 2.0. Besides, the Ki on hA1AR [2] is 5.6 nM; at hA2AAR, 11.2 nM.

For `Oc1nc2ccccc2n2nc(-c3cccs3)nc12` [CHEMBL328437], the Ki at hA1AR [2] is 2 nM.

`Cn1ncc2nc(N)n3nc(-c4ccco4)nc3c21` [CHEMBL1935752]: in the test on hA1AR [1], the A1AR selectivity turned out to be 0.4. For the same compound, the figures for the Ki at hA1AR [2] and at hA2AAR were 10 nM and 3.6 nM, respectively.

With `COc1cccc2sc(NC(=O)C(C)(C)C)nc12` [Compound 19], the “Free energy of binding (ΔG) A1AR” value at human A1AR [3] was -9.4 kcal/mol. This compound yielded a Ki at human A1AR [3] (setting [5]) of 133 ± 10 nM. The “ΔΔG Experimental A1AR” value on human A1AR [3] (reference compound 5) is listed as “–0.5 ± 0.1 kcal/mol”. Also, the A1AR selectivity index with human A1AR [4] came to 1.5. In addition, at human A2AAR, the “Free energy of binding (ΔG) A2AAR” value is -9.2 kcal/mol and the Ki stood at 199 ± 70 nM. Also, the “ΔΔG Experimental A2AAR” value on human A2AAR (reference compound 5) was “–1.2 ± 0.2 kcal/mol”.

In the case of `CC1(C(=O)Nc2nc3ccccc3s2)CCCC1` [Compound 20], the “Free energy of binding (ΔG) A1AR” value on human A1AR [3] is -9.6 kcal/mol. Further, the Ki on human A1AR [3] (radioligand binding, Fig. 1, Table S5) worked out at 95 nM; at human A2AAR, 572 ± 64 nM. Moreover, the “ΔΔG Experimental A1AR” value at human A1AR [3] (reference compound 9) is listed as “–1.1 ± 0.1 kcal/mol”. The “selectivity for the A1AR” value in the test with human A1AR [4] (Fig. 1) is recorded as 6 fold. Also, the “Free energy of binding (ΔG) A2AAR” value on human A2AAR is -8.6 kcal/mol. Further, the “ΔΔG Experimental A2AAR” value at human A2AAR (reference compound 9) was “–0.6 ± 0.1 kcal/mol”.

`CC1(C(=O)Nc2nc3cc(Cl)ccc3s2)CCCC1` [Compound 21]: on human A1AR [3], the “Free energy of binding (ΔG) A1AR” value is -10.5 kcal/mol. Also, the figures for the Ki on human A1AR [3] (setting [5]) and at human A2AAR were 23 ± 6 nM and 252 ± 89 nM, respectively. Besides, at human A1AR [3] (reference compound 9), the “ΔΔG Experimental A1AR” value is on record as “–2.0 ± 0.2 kcal/mol”. In addition, the A1AR selectivity index in the test with human A1AR [4] came to 11.0. Also, the “Free energy of binding (ΔG) A2AAR” value on human A2AAR was -9.1 kcal/mol. Besides, the “ΔΔG Experimental A2AAR” value on human A2AAR (reference compound 9) is listed as “–1.1 ± 0.2 kcal/mol”.

As for `Cc1ccc2sc(NC(=O)C3(C)CCCC3)nc2c1` [Compound 23], the “Free energy of binding (ΔG) A1AR” value on human A1AR [3] was -9.9 kcal/mol. Besides, the affinity on human A1AR [3] (setting [5]), expressed as Ki, was 57 ± 15 nM. For the same compound, the “ΔΔG Experimental A1AR” value at human A1AR [3] (reference compound 9) was “–1.4 ± 0.2 kcal/mol”. In the test with human A1AR [4], this compound registered an A1AR selectivity index of 9.8. On human A2AAR, the “Free energy of binding (ΔG) A2AAR” value is -8.6 kcal/mol and the Ki came to 561 ± 109 nM. Further, on human A2AAR (reference compound 9), the “ΔΔG Experimental A2AAR” value was “–0.6 ± 0.1 kcal/mol”.

In the case of `CCc1ccc2sc(NC(=O)C3(C)CCCC3)nc2c1` [Compound 24], the “Free energy of binding (ΔG) A1AR” value on human A1AR [3] was -9.6 kcal/mol. Further, affinity on human A1AR [3] (setting [5]) was put at a Ki of 96 ± 13 nM. On human A1AR [3] (reference compound 9), the “ΔΔG Experimental A1AR” value is reported as “–1.1 ± 0.1 kcal/mol”. Also, the A1AR selectivity index with human A1AR [4] is given as 22.4. Besides, on human A2AAR, the “Free energy of binding (ΔG) A2AAR” value is -7.8 kcal/mol and the Ki came out at 2150 ± 90 nM. On human A2AAR (reference compound 9), the “ΔΔG Experimental A2AAR” value is 0.2 ± 0.1 kcal/mol.

For `CC1(C(=O)Nc2nc3cc(C#N)ccc3s2)CCCC1` [Compound 25], the “Free energy of binding (ΔG) A1AR” value on human A1AR [3] was -9.9 kcal/mol. For the same compound, on human A1AR [3] (setting [5]), the Ki turned out to be 64 ± 6 nM. Further, on human A1AR [3] (reference compound 9), the “ΔΔG Experimental A1AR” value is on record as “–1.3 ± 0.1 kcal/mol”. The same compound yielded an A1AR selectivity index in the test on human A1AR [4] of 27.8. On human A2AAR, the “Free energy of binding (ΔG) A2AAR” value is -7.9 kcal/mol and the affinity, expressed as Ki, was 1780 ± 740 nM. Moreover, the “ΔΔG Experimental A2AAR” value at human A2AAR (reference compound 9) is listed as 0.1 ± 0.3 kcal/mol.

Source of the values: PMC8603191, “Fragment-based design of selective GPCR ligands guided by free energy simulations” (Chemical communications (Cambridge, England), 2021).
